Source: patent publication US20210140962A1, “COMPOUND AND METHOD OF MEASURING INTESTINAL PERMEABILITY AND LEAKY GUT” (priority 2017, published 2021)

Assays:
intestinal permeability = settings: rodent model with gradual deterioration of insulin sensitivity and eventual onset of diabetes; oral gavage; change over time (FIG. 5)
Method: 100 μg of non-radioactive Cr-EDTA in aqueous solution was administered to C57BL/6 mice and Wistar rats by oral gavage. A urine sample from the animals was then collected 6-10 hours after administration.
The urine sample taken from the animal was incubated with strongly acidic cation exchange resin wherein the active group is nuclear sulfonic acid, e.g., 33% by volume slurry of DOWEX-50-H+® cation exchange resin equilibrated with distilled water at room temperature.
Naturally occurring background Cr ions in the urine were correspondingly bound to the resin. […] The samples were then centrifuged, with the supernatant containing the fraction of administered Cr-EDTA that crossed the intestinal barrier.
The supernatant was injected directly into a Gas Furnace Atomic Absorption Spectroscope (GFAAS) using a graphite tube. The GFAAS apparatus had been calibrated to yield the concentration of Cr in each sample.

[1] = aqueous solution about 2.5 mM; comprised of materials verified as being non-toxic by the FDA; cited from earlier work

SMILES: O=C(O)CN(CCN(CC(=O)O)CC(=O)O)CC(=O)O.[Cr] [Cr-EDTA, chromium EDTA complex]
- ratio of Cr to creatinine in urine samples (intestinal permeability): measurable increase
- toxicity [1]: non-toxic
